From US10280166B2, “2-(1H-indazol-3-yl)-3H-imidazo[4,5-B]pyridine and therapeutic uses thereof” (Samumed, LLC, priority 2014, dated 2019)

Experiments:
[1] = tested on: Wnt activity (SW480 colon carcinoma cells stably expressing the Sp5-Luc reporter gene); assay: Sp5-Luc reporter gene screening assay for Wnt activity in SW480 cells; assay type: cell-based; conditions: Homo sapiens, 42 h incubation, luminescence
Outline: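 SW480 cells stably carrying an Sp5 promoter (eight TCF/LEF sites)-luciferase reporter were plated overnight in 10% FCS medium. BrightGlo luminescence was normalised to DMSO wells, and IC50 was obtained by four-parameter fit.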

[2] = tested on: primary human fibroblasts derived from IPF patients (LL29 cells); assay: Inhibition of fibrosis (αSMA) in TGF-β1 treated primary human fibroblasts from IPF patients; assay type: cell-based; conditions: Fibroblast, 96 h, TGF-β1 20 ng/mL, 4 days, % αSMA positive cells
Source text: The above synthesized compounds were screened using primary human fibroblasts (derived from IPF patients) treated with TGF-β1 to determine their ability to inhibit the fibrotic process.
Primary human fibroblasts derived from IPF patients (LL29 cells) [^1Xiaoqiu Liu, et.al., “Fibrotic Lung Fibroblasts Show Blunted Inhibition by cAMP Due to Deficient cAMP Response Element-Binding Protein Phosphorylation”, Journal of Pharmacology and Experimental Therapeutics (2005), 315(2), 678-687; ^2Watts, K. L., et.al., “RhoA signaling modulates cyclin D1 expression in human lung fibroblasts; implications for idiopathic pulmonary fibrosis”, Respiratory Research (2006), 7(1), 88] were obtained from American Type Culture Collection (ATCC) and expanded in F12 medium supplemented with 15% Fetal Bovine Serum and Penicillin/Streptomycin.
Each compound was dissolved in DMSO as a 10 mM stock and used to prepare compound source plates. Serial dilution (1:2, 11-point dose-response curves from 10 μM to 1.87 nM) and compound transfer was performed using the ECHO 550 (Labcyte, Sunnyvale, Calif.) into 384-well clear bottom assay plates (Greiner Bio-One) with appropriate DMSO backfill for a final DMSO concentration of 0.1%. LL29 cells were plated at 1,500 cells/well in 80 μl/well F12 medium supplemented with 1% Fetal Bovine Serum. One hour after addition of the cells, TGF-β1 (Peprotech; 20 ng/mL) was added to the plates to induce fibrosis (ref. 1 and 2 above). Wells treated with TGF-β1 and containing DMSO were used as controls. Cells were incubated at 37° C. and 5% CO2 for 4 days. Following incubation for 4 days, SYTOX green nucleic acid stain (Life Technologies [Thermo Fisher Scientific]) was added to the wells at a final concentration of 1 uM and incubated at room temperature for 30 min. Cells were then fixed using 4% formaldehyde (Electron Microscopy Sciences), washed 3 times with PBS followed by blocking and permeabilization using 3% Bovine Serum Albumin (BSA; Sigma) and 0.3% Triton X-100 (Sigma) in PBS. Cells were then stained with antibody specific to α-smooth muscle actin (αSMA; Abcam) (ref. 1 and 2 above) in 3% Bovine Serum Albumin (BSA; Sigma) and 0.3% Triton X-100 (Sigma) in PBS, and incubated overnight at 4° C. Cells were then washed 3 times with PBS, followed by incubation with Alexa Flor-647 conjugated secondary antibody (Life Technologies [Thermo Fisher Scientific]) and DAPI at room temperature for 1 hour. Cells were then washed 3 times with PBS and plates were sealed for imaging. αSMA staining was imaged by excitation at 630 nm and emission at 665 nm and quantified using the Compartmental Analysis program on the CellInsight CX5 (Thermo Scientific). Dead or apoptotic cells were excluded from analysis based on positive SYTOX green staining. % of total cells positive for αSMA were counted in each well and normalized to the average of 11 wells treated with TGF-β1 on the same plate using Dotmatics' Studies Software. The normalized averages (fold change over untreated) of 3 replicate wells for each compound concentration were used to create dose-responses curves and EC50 values were calculated using non-linear regression curve fit in the Dotmatics' Studies Software. The EC50 values are reported.

CCNCc1cncc(-c2ccc3[nH]nc(-c4nc5c(-c6cc(F)cc(NCCN(C)C)c6)ccnc5[nH]4)c3c2)c1 [Compound 448, N^1-(3-(2-(5-(5-((Ethylamino)methyl)pyridin-3-yl)-1H-indazol-3-yl)-3H-imidazo[4,5-b]pyridin-7-yl)-5-fluorophenyl)-N^2,N^2-dimethylethane-1,2-diamine]
IC50 [1]: 203 nM | EC50 [2]: 0.701 nM

O=C(Nc1cncc(-c2ccc3[nH]nc(-c4nc5c(-c6cccc(F)c6)ccnc5[nH]4)c3c2)c1)C1CCCC1 [Compound 21, N-(5-(3-(7-(3-Fluorophenyl)-3H-imidazo[4,5-b]pyridin-2-yl)-1H-indazol-5-yl)pyridin-3-yl)cyclopentanecarboxamide]
IC50 [1]: 9.1 nM | EC50 [2]: 0.027 nM

CN1CCN(c2ccnc3[nH]c(-c4n[nH]c5ccc(-c6cncnc6)cc45)nc23)CC1 [Compound 234, 7-(4-Methylpiperazin-1-yl)-2-(5-(pyrimidin-5-yl)-1H-indazol-3-yl)-3H-imidazo[4,5-b]pyridine]
IC50 [1]: 795 nM | EC50 [2]: 0.434 nM

CN(C)Cc1cncc(-c2ccc3[nH]nc(-c4nc5cccnc5[nH]4)c3c2)c1 [Compound 247, 1-(5-(3-(3H-Imidazo[4,5-b]pyridin-2-yl)-1H-indazol-5-yl)pyridin-3-yl)-N,N-dimethylmethanamine]
IC50 [1]: 77 nM | EC50 [2]: 0.184 nM

CC(C)C(=O)Nc1cncc(-c2ccc3[nH]nc(-c4nc5c(-c6ccsc6)ccnc5[nH]4)c3c2)c1 [Compound 269, N-(5-(3-(7-(Thiophen-3-yl)-3H-imidazo[4,5-b]pyridin-2-yl)-1H-indazol-5-yl)pyridin-3-yl)isobutyramide]
IC50 [1]: 5.1 nM | EC50 [2]: 9.99 nM

c1cncc(-c2ccc3[nH]nc(-c4nc5cccnc5[nH]4)c3c2)c1 [Compound 238, 2-(5-(Pyridin-3-yl)-1H-indazol-3-yl)-3H-imidazo[4,5-b]pyridine]
IC50 [1]: 28.8 nM | EC50 [2]: 0.013 nM

O=C(CC1CCNCC1)Nc1cncc(-c2ccc3[nH]nc(-c4nc5c(-c6cccc(F)c6)ccnc5[nH]4)c3c2)c1 [Compound 1881, N-(5-(3-(7-(3-Fluorophenyl)-3H-imidazo[4,5-b]pyridin-2-yl)-1H-indazol-5-yl)pyridin-3-yl)-2-(piperidin-4-yl)acetamide]
IC50 [1]: 65 nM | EC50 [2]: 0.071 nM

O=C(Nc1cncc(-c2ccc3[nH]nc(-c4nc5c(-c6ccccn6)ccnc5[nH]4)c3c2)c1)c1ccccc1 [Compound 141, N-(5-(3-(7-(Pyridin-2-yl)-3H-imidazo[4,5-b]pyridin-2-yl)-1H-indazol-5-yl)pyridin-3-yl)benzamide]
IC50 [1]: 13.7 nM | EC50 [2]: 9.99 nM

CN(C)Cc1cncc(-c2ccc3[nH]nc(-c4nc5c(-c6cccc(F)c6)ccnc5[nH]4)c3c2)c1 [Compound 13, 1-(5-(3-(7-(3 -Fluorophenyl)-3H-imidazo[4,5-b]pyridin-2-yl)-1H-indazol-5-yl)pyridin-3-yl)-N,N-dimethylmethanamine]
IC50 [1]: 116 nM | EC50 [2]: 1.15 nM

CN(C)Cc1cncc(-c2ccc3[nH]nc(-c4nc5c(N6CCCCC6)ccnc5[nH]4)c3c2)c1 [Compound 169, N,N-Dimethyl-1-(5-(3-(7-(piperidin-1-yl)-3H-imidazo[4,5-b]pyridin-2-yl)-1H-indazol-5-yl)pyridin-3-yl)methanamine]
IC50 [1]: 1450 nM | EC50 [2]: 0.396 nM

NC1CN(c2cncc(-c3ccc4[nH]nc(-c5nc6c(-c7cccc(F)c7)ccnc6[nH]5)c4c3)n2)C1 [Compound 1878, 1-(6-(3-(7-(3-Fluorophenyl)-3H-imidazo[4,5-b]pyridin-2-yl)-1H-indazol-5-yl)pyrazin-2-yl)azetidin-3-amine]
IC50 [1]: 215 nM | EC50 [2]: 9.99 nM

FC1(F)CCN(Cc2cncc(-c3ccc4[nH]nc(-c5nc6c(N7CCCCC7)ccnc6[nH]5)c4c3)c2)C1 [Compound 181, 2-(5-(5-((3,3-Difluoropyrrolidin-1-yl)methyl)pyridin-3-yl)-1H-indazol-3-yl)-7-(piperidin-1-yl)-3H-imidazo[4,5-b]pyridine]
IC50 [1]: 2580 nM | EC50 [2]: 0.009 nM

CN(C)CC(=O)Nc1cncc(-c2ccc3[nH]nc(-c4nc5c(-c6cccc(F)c6)ccnc5[nH]4)c3c2)c1 [Compound 2373, 2-(Dimethylamino)-N-(5-(3-(7-(3-fluorophenyl)-3H-imidazo[4,5-b]pyridin-2-yl)-1H-indazol-5-yl)pyridin-3-yl)acetamide]
IC50 [1]: 91 nM | EC50 [2]: 0.233 nM

CN(C)CCNc1cc(F)cc(-c2ccnc3[nH]c(-c4n[nH]c5ccc(-c6cncc(CNCC7CCCC7)c6)cc45)nc23)c1 [Compound 466, N^1-(3-(2-(5-(5-(((Cyclopentylmethyl)amino)methyl)pyridin-3-yl)-1H-indazol-3-yl)-3H-imidazo[4,5-b]pyridin-7-yl)-5-fluorophenyl)-N^2,N^2-dimethylethane-1,2-diamine]
IC50 [1]: 442 nM | EC50 [2]: 1.11 nM

Cc1cn(-c2ccnc3[nH]c(-c4n[nH]c5ccc(-c6cncc(NC(=O)C(C)(C)C)c6)cc45)nc23)cn1 [Compound 190, N-(5-(3-(7-(4-Methyl-1H-imidazol-1-yl)-3H-imidazo[4,5-b]pyridin-2-yl)-1H-indazol-5-yl)pyridin-3-yl)pivalamide]
IC50 [1]: 7.4 nM | EC50 [2]: 0.009 nM

CCC(=O)Nc1cncc(-c2ccc3[nH]nc(-c4nc5c(-c6cccs6)ccnc5[nH]4)c3c2)c1 [Compound 313, N-(5-(3-(7-(Thiophen-2-yl)-3H-imidazo[4,5-b]pyridin-2-yl)-1H-indazol-5-yl)pyridin-3-yl)propionamide]
IC50 [1]: 2 nM | EC50 [2]: 0.027 nM

O=C(Nc1cncc(-c2ccc3[nH]nc(-c4nc5c(-c6cccs6)ccnc5[nH]4)c3c2)c1)C1CC1 [Compound 331, N-(5-(3-(7-(Thiophen-2-yl)-3H-imidazo[4,5-b]pyridin-2-yl)-1H-indazol-5-yl)pyridin-3-yl)cyclopropanecarboxamide]
IC50 [1]: 34.7 nM | EC50 [2]: 0.155 nM

O=C(Nc1cncc(-c2ccc3[nH]nc(-c4nc5c(N6CCCCC6)ccnc5[nH]4)c3c2)c1)C1CC1 [Compound 175, N-(5-(3-(7-(Piperidin-1-yl)-3H-imidazo[4,5-b]pyridin-2-yl)-1H-indazol-5-yl)pyridin-3-yl)cyclopropanecarboxamide]
IC50 [1]: 99.3 nM | EC50 [2]: 9.99 nM

CC(C)(C)C(=O)Nc1cncc(-c2ccc3[nH]nc(-c4nc5c(-c6cccs6)ccnc5[nH]4)c3c2)c1 [Compound 320, N-(5-(3-(7-(Thiophen-2-yl)-3H-imidazo[4,5-b]pyridin-2-yl)-1H-indazol-5-yl)pyridin-3-yl)pivalamide]
IC50 [1]: 8.8 nM | EC50 [2]: 0.016 nM

O=C(Nc1cncc(-c2ccc3[nH]nc(-c4nc5cccnc5[nH]4)c3c2)c1)C1CCCCC1 [Compound 256, N-(5-(3-(3H-Imidazo[4,5-b]pyridin-2-yl)-1H-indazol-5-yl)pyridin-3-yl)cyclohexanecarboxamide]
IC50 [1]: 66.3 nM | EC50 [2]: 0.401 nM

Fc1cccc(-c2ccnc3[nH]c(-c4n[nH]c5ccc(-c6cnccn6)cc45)nc23)c1 [Compound 1890, 7-(3-Fluorophenyl)-2-(5-(pyrazin-2-yl)-1H-indazol-3-yl)-3H-imidazo[4,5-b]pyridine]
IC50 [1]: 39 nM | EC50 [2]: 0.167 nM

Cc1ccncc1-c1ccc2[nH]nc(-c3nc4c(-c5cc(F)cc(CNS(C)(=O)=O)c5)ccnc4[nH]3)c2c1 [Compound 421, N-(3-fluoro-5-(2-(5-(4-Methylpyridin-3-yl)-1H-indazol-3-yl)-3H-imidazo[4,5-b]pyridin-7-yl)benzyl)methanesulfonamide]
IC50 [1]: 6.1 nM | EC50 [2]: 0.045 nM

Fc1cccc(-c2ccnc3[nH]c(-c4n[nH]c5ccc(-c6ccccn6)cc45)nc23)c1 [Compound 1889, 7-(3-Fluorophenyl)-2-(5-(pyridin-2-yl)-1H-indazol-3-yl)-3H-imidazo[4,5-b]pyridine]
IC50 [1]: > 1000 nM | EC50 [2]: 0.018 nM
